Key:
tau = target: T1, tau (Homo sapiens, UniProt P10636); assay: In cellulo tau aggregation inhibition, Thioflavin S fluorescence in E. coli overexpressing tau; assay type: cell-based, Escherichia coli; conditions: at 10 µM; mean of three experiments ± SEM
T1 construct: expressed in transfected cells; host or cells: E. coli BL21 (DE3) with pTARA (T7 RNA polymerase under pBAD) and pRKT42
Text: (§1) We screened multifunctional ligands from our in-house library for their anti-aggregating activity against Aβ and tau in the whole bacterial cells using the Thioflavin S (ThS) fluorescence assay. Bacterial cells overexpressing different proteins provide simple models that can be easily employed to monitor the mechanisms of protein aggregation related to a variety of conformational diseases[36]^,[37]. In our assay, E. coli system has been implemented to study the effect of potential Aβ42 and tau aggregation inhibitors within intact cells. The advantage of the test over in vitro tests is the fact that it considers the complexity of the cellular environment that plays a crucial role in tuning protein aggregation. This assay has been validated and successfully applied to assess the anti-aggregating properties of diverse chemical structures. Previously investigated tetrahydrobenzo[h][1,6] naphthyridine-6-chlorotacrine hybrid DP-128 was used as a reference compound[38]^,[39].
(§2) The assays were conducted according to the procedure described previously. All general chemicals were purchased from Sigma-Aldrich (St. Louis, MO) . Reagents for bacterial media were purchased from Conda (Sevilla, Spain). M9 minimal medium for 100 mL: 10 mL of salts 10× (0.68 g of Na2HPO4, 0.30 g of KH2PO4, 0.05 g of NaCl, 0.10 g of NH4Cl), 0.2 mL of 1 M MgSO4, 0.2 mL of 50 mM CaCl2, 2.5 mL of 20% glucose, and 87.1 mL of H2O.
(§3) E. coli competent cells BL21 (DE3) were transformed with the pET28a vector (Novagen, Inc., Madison, WI) carrying the DNA sequence of Aβ42 or with pTARA containing the RNA polymerase gene of T7 phage (T7RP) under the control of the promoter pBAD, then with pRKT42 vector encoding four repeats of tau protein in two inserts. For overnight culture preparation, 10 ml of M9 minimal medium containing 50 μg/mL of kanamycin (Aβ42) or 50 μg/mL of ampicillin and 12.5 μg/mL of chloramphenicol (tau) were inoculated with a colony of BL21 (DE3) bearing the plasmid Aβ42 or tau plasmids to be expressed at 37 °C and 180 rpm using an incubator shaker (Ovan, Barcelona, Spain). After overnight growth, the OD600 was usually 2 − 2.5. For expression of Aβ42 peptide/tau protein, 200 μL of overnight culture were transferred into Eppendorf tubes of 1.5 mL containing 790 μL of fresh M9 minimal medium with 50 μg/mL of kanamycin1 mM of isopropyl 1-thio-β-D-galactopyranoside (IPTG) (Aβ42) or 50 μg/mL of ampicillin, 12.5 μg/mL of chloramphenicol, 0.25% of arabinose (tau), and 25 μM of ThS and 10 μL of reference, tested compounds (1 mM in DMSO, final concentration: 10 μM) or DMSO. The samples were grown for 24 h at 37 °C and 180 rpm using an incubator shaker (Ovan). The samples with DMSO were prepared as a negative control (maximum level of Aβ42/tau, 0% of inhibition). In the positive controls, the M9 medium without IPTG (minimal level of Aβ42) or arabinose (minimal level of tau) was used. For absorbance and fluorescence determination, 200 μL of each Eppendorf tube was transferred in triplicate into 96-well plate. Finally, the fluorescence emission at 520 nm, when exciting at 440 nm and absorbance at 600 nm was recorded using the multi-mode microplate reader (Beckman Counter, Brea, CA). The absorbance at 600 nm (OD600) of these samples was assessed to check the bacterial growth and potential intrinsic toxicity of the tested compounds. Final data are the average of three independent experiments. DP-128 was used as a reference compound[38].

Aβ42 = target: T2, Aβ42 (Homo sapiens, UniProt P05067); assay: In cellulo Aβ42 aggregation inhibition, Thioflavin S fluorescence in E. coli overexpressing Aβ42; assay type: cell-based, Escherichia coli; conditions: at 10 µM; mean of three experiments ± SEM
T2 construct: expressed in transfected cells; host or cells: E. coli BL21 (DE3) with pET28a-Aβ42, IPTG-induced
Text: as §1, §2, §3

human BACE1 = target: T3, human BACE1 (Homo sapiens, UniProt P56817); assay: In vitro inhibition of human BACE1, FRET assay; assay type: biochemical; conditions: for hBACE1 % inhibition: at 10 µM per table footnote b, mean of three experiments ± SD; for BACE1 percentage of inhibition: screening concentration 50 µM; for IC50: mean of three experiments ± SEM, read-out: hBACE1 IC50
T3 construct: purchased Panvera, Madison, WI (BACE1 FRET Assay Kit); host or cells: baculovirus-expressed
Protocol: To further explore the multifunctional profile of the ligands, we screened them for their inhibitory activity against human BACE1 using spectrofluorometric assay (fluorescence resonance energy transfer (FRET)-based). […] Therefore, BACE1 inhibitors are now being tested in earlier stages of AD and in asymptomatic subjects at risk of AD, with the hope of blocking the disease process before it becomes irreversible.
BACE1 FRET Assay Kit (Panvera, Madison, WI) was performed according to the manufacturer’s protocol with small modifications. The Kit includes purified baculovirus-expressed BACE1 and specific peptide substrate (Rh-[…]-quencher), based on the “Swedish” mutant of APP. The analysis was carried, using 384-well black microplates and a microplate reader (EnSpire Multimode; PerkinElmer, Waltham, MA). The wavelength was optimised for the 553 nm excitation and 576 nm emission. Stock solutions of all test compounds were prepared in DMSO and further diluted with assay buffer (50 mM sodium acetate; pH 4.5). In the first step, 10 μL of BACE1 substrate was mixed with 10 μL of test compound (or assay buffer; i.e. blank sample), then 10 μL of the enzyme (1 U/mL) was added to start the reaction. After 60 min of incubation at 25 °C, 10 μL of stop solution (2.5 M sodium acetate) was applied to stop the reaction. The fluorescence signal was read at 576 nm. Percent of inhibition was calculated from [1 − (S60 − S0)/(C60 − C0)] × 100, where S0 and S60 are fluorescence intensities of the test sample (enzyme, substrate, test compound) at the beginning of the reaction and after 60 min, respectively, while C0 and C60 are analogical fluorescence intensities of the blank sample (enzyme, substrate, buffer). […] Each compound was analysed in triplicate. Commercially available BACE1 Inhibitor IV (Calbiochem, Merck; Nottingham, UK) was used as the reference compound. The IC50 values were calculated using nonlinear regression (GraphPad Prism 5 [GraphPad Software, San Diego, CA, 5.00]) by plotting the residual enzyme activities against the applied inhibitor concentration.

T3 sequence (P56817 46-501): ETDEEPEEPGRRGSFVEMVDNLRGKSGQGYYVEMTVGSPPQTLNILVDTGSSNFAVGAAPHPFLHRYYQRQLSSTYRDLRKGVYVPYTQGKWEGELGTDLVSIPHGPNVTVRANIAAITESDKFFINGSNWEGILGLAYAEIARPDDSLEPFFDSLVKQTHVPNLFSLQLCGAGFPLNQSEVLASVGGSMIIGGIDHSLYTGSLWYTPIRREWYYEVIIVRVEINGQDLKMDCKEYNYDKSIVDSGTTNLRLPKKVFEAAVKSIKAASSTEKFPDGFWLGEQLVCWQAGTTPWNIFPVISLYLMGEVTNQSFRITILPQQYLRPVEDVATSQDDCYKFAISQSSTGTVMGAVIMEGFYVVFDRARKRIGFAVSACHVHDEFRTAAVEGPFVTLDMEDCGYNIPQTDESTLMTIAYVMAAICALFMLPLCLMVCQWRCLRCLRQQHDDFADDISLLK
T2 sequence (P05067 672-713): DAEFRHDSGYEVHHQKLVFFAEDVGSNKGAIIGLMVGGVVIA
T1 sequence (P10636 other isoform, or with tags, fused parts or gaps): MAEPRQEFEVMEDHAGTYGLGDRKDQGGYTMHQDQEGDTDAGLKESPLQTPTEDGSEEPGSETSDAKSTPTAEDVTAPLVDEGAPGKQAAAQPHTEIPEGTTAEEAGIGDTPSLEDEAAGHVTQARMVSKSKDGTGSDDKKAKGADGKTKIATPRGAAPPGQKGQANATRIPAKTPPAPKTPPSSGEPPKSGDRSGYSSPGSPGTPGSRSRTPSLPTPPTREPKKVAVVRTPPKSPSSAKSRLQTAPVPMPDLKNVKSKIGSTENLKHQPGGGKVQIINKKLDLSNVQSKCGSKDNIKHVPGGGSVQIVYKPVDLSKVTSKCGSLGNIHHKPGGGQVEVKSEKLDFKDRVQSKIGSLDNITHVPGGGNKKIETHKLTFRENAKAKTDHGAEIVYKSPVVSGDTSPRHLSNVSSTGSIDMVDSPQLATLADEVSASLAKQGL

Row | SMILES | In cellulo tau inhibition % (tau) [%] | In cellulo Aβ42 inhibition % (Aβ42) [%] | hBACE1 % inhibition (human BACE1) | BACE1 percentage of inhibition (human BACE1) | IC50 (human BACE1) [µM]
1 | Cc1c(OCc2ccccc2)cccc1N1CCN(CCCCCNCc2ccccc2)CC1 [Compound 33] | 55.8 ± 5.3 | 29.0 ± 4.5 | 31.5% ± 1.1 | about 30% | –
2 | O=S(=O)(c1ccccc1)n1ccc2c(N3CCN(CCCCCCCNc4c5c(nc6ccccc46)CCCC5)CC3)cccc21 [Compound 4] | 46.4 ± 5.9 | 58.8 ± 4.2 | – | – | 1.31 ± 0.06
3 | c1ccc(Cn2ccc3c(N4CCN(CCCCCNc5c6c(nc7ccccc57)CCCC6)CC4)cccc32)cc1 [Compound 19] | – | – | – | – | 7.23 ± 0.38
4 | Cc1c(OCc2ccccc2)cccc1N1CCN(CCCCCCNc2c3c(nc4ccccc24)CCCC3)CC1 [Compound 28] | 64.8 ± 2.2 | 64.2 ± 3.4 | 67.4% ± 11.3 | 67% | –
5 | Cc1c(OCc2ccccc2)cccc1N1CCN(CCCCNCc2ccccc2)CC1 [Compound 32] | 42.5 ± 6.3 | 43.2 ± 5.4 | 42.8% ± 12.7 | 42.8% | –
6 | O=S(=O)(c1ccccc1)n1ccc2c(N3CCN(CCCCCCCCNc4c5c(nc6ccccc46)CCCC5)CC3)cccc21 [Compound 5] | 52.7 ± 5.7 | 61.8 ± 4.1 | – | – | 2.29 ± 0.13
7 | O=S(=O)(c1ccccc1)n1ccc2c(N3CCN(CCCNCc4ccccc4)CC3)cccc21 [Compound 7] | 39.7 ± 3.8 | 48.3 ± 4.2 | – | – | 5.82 ± 0.34
8 | Cc1c(OCc2ccccc2)cccc1N1CCN(CCCNCc2ccccc2)CC1 [Compound 31] | 39.5 ± 8.3 | 24.4 ± 3.4 | 34.0% ± 11.4 | – | –
9 | O=S(=O)(c1ccccc1)n1ccc2c(N3CCN(CCCCNCc4ccccc4)CC3)cccc21 [Compound 8] | 45.1 ± 5.1 | 54.5 ± 3.8 | – | – | 19.7 ± 1.54
10 | c1ccc(Cn2ccc3c(N4CCN(CCCCCCNc5c6c(nc7ccccc57)CCCC6)CC4)cccc32)cc1 [Compound 20] | 64.0 ± 5.1 | 66.9 ± 3.9 | 62.1% ± 5.8 | 62% | –
11 | Cc1c(OCc2ccccc2)cccc1N1CCN(CCCNc2c3c(nc4ccccc24)CCCC3)CC1 [Compound 27] | 64.5 ± 4.1 | 64.9 ± 4.5 | – | – | 5.76 ± 0.28
12 | Cc1c(OCc2ccccc2)cccc1N1CCN(CCCCCCCCNc2c3c(nc4ccccc24)CCCC3)CC1 [Compound 30] | 60.2 ± 2.6 | 66.7 ± 5.1 | 33.6% ± 11.1 | 34% | –
13 | c1ccc(CNCCCCCCCN2CCN(c3cccc4c3ccn4Cc3ccccc3)CC2)cc1 [Compound 24] | 55.6 ± 4.2 | 21.4 ± 3.4 | – | – | 21.7 ± 1.57
14 | O=S(=O)(c1ccccc1)n1ccc2c(N3CCN(CCCCCNCc4ccccc4)CC3)cccc21 [Compound 9] | 44.8 ± 5.6 | 48.0 ± 4.0 | – | – | 23.4 ± 1.6
15 | c1ccc(CNCCCCN2CCN(c3cccc4c3ccn4Cc3ccccc3)CC2)cc1 [Compound 21] | 41.3 ± 6.3 | 12.2 ± 4.1 | – | – | 21.9 ± 1.16
16 | c1ccc(Cn2ccc3c(N4CCN(CCCNc5c6c(nc7ccccc57)CCCC6)CC4)cccc32)cc1 [Compound 18] | – | – | – | – | 4.58 ± 0.21
17 | c1ccc(CNCCCCCCN2CCN(c3cccc4c3ccn4Cc3ccccc3)CC2)cc1 [Compound 23] | 28.4 ± 3.8 | 16.4 ± 2.8 | – | – | 30.9 ± 1.58
18 | O=S(=O)(c1ccccc1)n1ccc2c(N3CCN(CCNCc4ccccc4)CC3)cccc21 [Compound 6] | 54.6 ± 6.2 | 64.8 ± 3.4 | 67.4% ± 4.8 | – | –
19 | O=S(=O)(c1ccccc1)n1ccc2c(N3CCN(CCCCCNc4c5c(nc6ccccc46)CCCC5)CC3)cccc21 [Compound 2] | – | – | – | – | 8.07 ± 0.15
20 | Cc1c(OCc2ccccc2)cccc1N1CCN(CCCCCCCNc2c3c(nc4ccccc24)CCCC3)CC1 [Compound 29] | 70.3 ± 3.9 | 67.4 ± 4.1 | – | – | 4.07 ± 0.27
21 | c1ccc(CNCCCCCN2CCN(c3cccc4c3ccn4Cc3ccccc3)CC2)cc1 [Compound 22] | 44.3 ± 6.5 | 25.2 ± 3.4 | 63.9% ± 7.7 | – | –
22 | O=S(=O)(c1ccccc1)n1ccc2c(N3CCN(CCNc4c5c(nc6ccccc46)CCCC5)CC3)cccc21 [Compound 1] | 58.1 ± 4.8 | 40.7 ± 4.3 | – | – | 1.58 ± 0.15
